Test results: ChEMBL document CHEMBL4152357, “Efflux pump inhibition by 11H-pyrido[2,1-b]quinazolin-11-one analogues in mycobacteria” (Bioorg Med Chem, 2018)
In brackets after ≈: the same amount, converted by molar mass. Activity calls are given as the source filed them. The rule behind the calls is not given here.

How the values were obtained:
[1] = target: T1, Multidrug efflux pump LfrA (Mycobacterium smegmatis (strain ATCC 700084 / mc(2)155)) (UniProt A0R5K5); test: Inhibition of LfrA in Mycobacterium smegmatis MC2 155 ATCC 700084 assessed as potentiation of norfloxacin-induced bactericidal activity at 25 ug/ml after 24 to 48 hrs; conditions: Mycolicibacterium smegmatis MC2 155
T1 sequence (whole entry): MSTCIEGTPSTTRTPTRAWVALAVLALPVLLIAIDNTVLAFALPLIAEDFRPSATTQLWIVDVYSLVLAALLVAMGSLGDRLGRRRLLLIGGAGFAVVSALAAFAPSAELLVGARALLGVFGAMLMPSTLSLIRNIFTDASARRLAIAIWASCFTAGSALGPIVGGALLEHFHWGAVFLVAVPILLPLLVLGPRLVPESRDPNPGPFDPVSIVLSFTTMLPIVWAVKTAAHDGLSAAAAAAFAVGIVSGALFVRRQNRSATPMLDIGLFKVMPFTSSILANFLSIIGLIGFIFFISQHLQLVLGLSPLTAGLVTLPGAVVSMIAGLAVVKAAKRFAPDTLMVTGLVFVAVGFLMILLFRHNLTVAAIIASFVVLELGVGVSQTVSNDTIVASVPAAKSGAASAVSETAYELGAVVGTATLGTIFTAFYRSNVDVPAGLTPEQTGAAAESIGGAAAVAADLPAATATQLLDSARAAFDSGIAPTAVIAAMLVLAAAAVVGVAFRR

[2] = test system: Mycolicibacterium smegmatis; test: Growth inhibition of Mycobacterium smegmatis MC2 155 ATCC 700084 after 72 hrs by MTT assay; assay type: organism-based
[3] = target: T1, Multidrug efflux pump LfrA (Mycobacterium smegmatis (strain ATCC 700084 / mc(2)155)); test: Inhibition of LfrA in Mycobacterium smegmatis MC2 155 ATCC 700084 assessed as decrease in norfloxacin MIC at 25 ug/ml after 72 hrs by MTT assay relative to control; conditions: Mycolicibacterium smegmatis MC2 155
CC-1 = test: Cytotoxicity against rat CC1 cells assessed as decrease in cell survival at 200 ug/ml after 24 hrs by Alamar blue reduction assay relative to control; assay type: cell-based; conditions: cc-1, 24 h
[4] = Cytotoxicity against rat CC1 cells assessed as cell survival at 100 ug/ml after 24 hrs by Alamar blue reduction assay relative to control; assay type: cell-based, CC-1; conditions: read-out: Survival
[5] = Cytotoxicity against rat CC1 cells assessed as cell survival at 50 ug/ml after 24 hrs by Alamar blue reduction assay relative to control; assay type: cell-based, CC-1; conditions: read-out: Survival
[6] = target: T1, Multidrug efflux pump LfrA (Mycobacterium smegmatis (strain ATCC 700084 / mc(2)155)); test: Inhibition of LfrA in Mycobacterium smegmatis MC2 155 ATCC 700084 assessed as increase in norfloxacin accumulation at 25 ug/ml measured every 5 mins for 35 mins by fluorometric analysis; conditions: Mycolicibacterium smegmatis MC2 155
[7] = target: T1, Multidrug efflux pump LfrA (Mycobacterium smegmatis (strain ATCC 700084 / mc(2)155)); test: Inhibition of LfrA in Mycobacterium smegmatis MC2 155 ATCC 700084 assessed as decrease in EtBr MIC at 3.125 ug/ml after 72 hrs by MTT assay relative to control; conditions: Mycolicibacterium smegmatis MC2 155
[8] = target: T1, Multidrug efflux pump LfrA (Mycobacterium smegmatis (strain ATCC 700084 / mc(2)155)); test: Inhibition of LfrA in Mycobacterium smegmatis MC2 155 ATCC 700084 assessed as decrease in EtBr MIC at 100 ug/ml after 72 hrs by MTT assay relative to control; conditions: Mycolicibacterium smegmatis MC2 155
[9] = target: T1, Multidrug efflux pump LfrA (Mycobacterium smegmatis (strain ATCC 700084 / mc(2)155)); test: Inhibition of LfrA in Mycobacterium smegmatis MC2 155 ATCC 700084 assessed as decrease in norfloxacin MIC at 50 ug/ml after 72 hrs by MTT assay relative to control; conditions: Mycolicibacterium smegmatis MC2 155
[10] = target: T1, Multidrug efflux pump LfrA (Mycobacterium smegmatis (strain ATCC 700084 / mc(2)155)); test: Inhibition of LfrA in Mycobacterium smegmatis MC2 155 ATCC 700084 assessed as potentiation of EtBr-induced bactericidal activity at 100 ug/ml after 24 hrs; conditions: Mycolicibacterium smegmatis MC2 155
[11] = target: T1, Multidrug efflux pump LfrA (Mycobacterium smegmatis (strain ATCC 700084 / mc(2)155)); test: Inhibition of LfrA in Mycobacterium smegmatis MC2 155 ATCC 700084 assessed as increase in EtBr accumulation at 25 ug/ml measured every 5 mins for 35 mins by fluorometric analysis; conditions: Mycolicibacterium smegmatis MC2 155
[12] = target: T1, Multidrug efflux pump LfrA (Mycobacterium smegmatis (strain ATCC 700084 / mc(2)155)); test: Inhibition of LfrA in Mycobacterium smegmatis MC2 155 ATCC 700084 assessed as increase in EtBr accumulation at 50 ug/ml measured every 5 mins for 35 mins by fluorometric analysis; conditions: Mycolicibacterium smegmatis MC2 155
[13] = target: T1, Multidrug efflux pump LfrA (Mycobacterium smegmatis (strain ATCC 700084 / mc(2)155)); test: Inhibition of LfrA in Mycobacterium smegmatis MC2 155 ATCC 700084 assessed as decrease in norfloxacin MIC at 12.5 ug/ml after 72 hrs by MTT assay relative to control; conditions: Mycolicibacterium smegmatis MC2 155
[14] = target: T1, Multidrug efflux pump LfrA (Mycobacterium smegmatis (strain ATCC 700084 / mc(2)155)); test: Inhibition of LfrA in Mycobacterium smegmatis MC2 155 ATCC 700084 assessed as decrease in EtBr MIC at 0.78 ug/ml after 72 hrs by MTT assay relative to control; conditions: Mycolicibacterium smegmatis MC2 155
[15] = target: T1, Multidrug efflux pump LfrA (Mycobacterium smegmatis (strain ATCC 700084 / mc(2)155)); test: Inhibition of LfrA in Mycobacterium smegmatis MC2 155 ATCC 700084 assessed as potentiation of EtBr-induced bactericidal activity at 100 ug/ml after 48 hrs; conditions: Mycolicibacterium smegmatis MC2 155
[16] = target: T1, Multidrug efflux pump LfrA (Mycobacterium smegmatis (strain ATCC 700084 / mc(2)155)); test: Inhibition of LfrA in Mycobacterium smegmatis MC2 155 ATCC 700084 assessed as decrease in norfloxacin MIC at 100 ug/ml after 72 hrs by MTT assay relative to control; conditions: Mycolicibacterium smegmatis MC2 155
[17] = target: T1, Multidrug efflux pump LfrA (Mycobacterium smegmatis (strain ATCC 700084 / mc(2)155)); test: Inhibition of LfrA in Mycobacterium smegmatis MC2 155 ATCC 700084 assessed as potentiation of norfloxacin-induced bactericidal activity at 100 ug/ml after 48 hrs; conditions: Mycolicibacterium smegmatis MC2 155
[18] = target: T1, Multidrug efflux pump LfrA (Mycobacterium smegmatis (strain ATCC 700084 / mc(2)155)); test: Inhibition of LfrA in Mycobacterium smegmatis MC2 155 ATCC 700084 assessed as decrease in EtBr MIC at 16 ug/ml after 72 hrs by MTT assay relative to control; conditions: Mycolicibacterium smegmatis MC2 155
[19] = target: T1, Multidrug efflux pump LfrA (Mycobacterium smegmatis (strain ATCC 700084 / mc(2)155)); test: Inhibition of LfrA in Mycobacterium smegmatis MC2 155 ATCC 700084 assessed as decrease in norfloxacin MIC at 0.0004 ug/ml after 72 hrs by MTT assay relative to control; conditions: Mycolicibacterium smegmatis MC2 155
[20] = target: T1, Multidrug efflux pump LfrA (Mycobacterium smegmatis (strain ATCC 700084 / mc(2)155)); test: Inhibition of LfrA in Mycobacterium smegmatis MC2 155 ATCC 700084 assessed as increase in EtBr accumulation at 12.5 ug/ml measured every 5 mins for 35 mins by fluorometric analysis; conditions: Mycolicibacterium smegmatis MC2 155
[21] = target: T1, Multidrug efflux pump LfrA (Mycobacterium smegmatis (strain ATCC 700084 / mc(2)155)); test: Inhibition of LfrA in Mycobacterium smegmatis MC2 155 ATCC 700084 assessed as increase in norfloxacin accumulation at 12.5 ug/ml measured every 5 mins for 35 mins by fluorometric analysis; conditions: Mycolicibacterium smegmatis MC2 155

Compound | MIC [2] [µg/mL] | fold change (FC) [3] | fractional inhibitory concentration index (FICI) [3] | Activity (CC-1) [%] | viability at 24 h, 100 ug/ml [4] [%] | viability at 24 h, 50 ug/ml [5] [%] | fold change (FC) [8] | fractional inhibitory concentration index (FICI) [8] | inhibition [10] | inhibition [11] | Activity [12] [FU] | other results
O=c1c2cccc(Cl)c2nc2ccccn12 | 200 (≈ 867 µM) | 8 | 0.25 | > 50 | 99 | 100 | – | – | – | – | – | Activity (deltalog10CFU/ml) [1]: > 3; Activity [6]: 3000 FU
Cc1ccn2c(=O)c3cccc(Cl)c3nc2c1 | 200 (≈ 817 µM) | 4 | 0.37 | – | – | – | – | – | – | – | – | fold change (FC) [7]: 2; fractional inhibitory concentration index (FICI) [7]: 0.5
O=c1c2cccc(Cl)c2nc2ccc(F)cn12 | 200 (≈ 804 µM) | – | – | > 50 | 86 | 84 | 8 | 0.62 | Active | Active | > 500 | fold change (FC) [9]: 4; fractional inhibitory concentration index (FICI) [9]: 0.55
Cc1cccn2c(=O)c3ccccc3nc12 | 200 (≈ 951 µM) | – | – | > 50 | 81 | 45 | 8 | 0.62 | Active | Active | 250 | fold change (FC) [13]: 4; fractional inhibitory concentration index (FICI) [13]: 0.3
COc1ccc(CCN(C)CCCC(C#N)(c2ccc(OC)c(OC)c2)C(C)C)cc1OC (centres undefined) [VERAPAMIL] | 300 (≈ 660 µM) | – | – | – | – | – | – | – | – | – | – | –
Cc1ccn2c(=O)c3cccc(F)c3nc2c1 | 200 (≈ 876 µM) | – | – | > 50 | 43 | 96 | 8 | 0.62 | Active | Active | > 150 | fold change (FC) [13]: 4; fractional inhibitory concentration index (FICI) [13]: 0.3
O=c1c2cccc(Cl)c2nc2c3ccccc3ccn12 | 200 (≈ 712 µM) | 4 | 0.37 | – | – | – | 2 | 1 | – | – | – | –
Cc1cccn2c(=O)c3cc(Br)ccc3nc12 | 200 (≈ 692 µM) | 4 | 0.37 | – | – | – | – | – | – | – | – | fold change (FC) [14]: 2; fractional inhibitory concentration index (FICI) [14]: 0.3
Cc1ccn2c(=O)c3cc(Br)ccc3nc2c1 | 200 (≈ 692 µM) | 4 | 0.37 | – | – | – | – | – | – | – | – | fold change (FC) [14]: 2; fractional inhibitory concentration index (FICI) [14]: 0.3
O=c1c2ccccc2nc2ccccn12 | 200 (≈ 1020 µM) | 8 | 0.25 | > 50 | 70 | 86 | 8 | 0.62 | Active | inactive | < 150 | Activity (deltalog10CFU/ml) [1]: > 3; inhibition [15]: Active; Activity [6]: 2000 FU
O=c1c2ccc(F)cc2nc2ccccn12 | 200 (≈ 934 µM) | – | – | – | – | – | – | – | – | – | – | fold change (FC) [13]: 2; fractional inhibitory concentration index (FICI) [13]: 0.56
O=c1c2cccc(Cl)c2nc2c(Cl)cccn12 | 200 (≈ 754 µM) | – | – | > 50 | 92 | 95 | 16 | 0.56 | – | Active | > 355 | fold change (FC) [9]: 4; fractional inhibitory concentration index (FICI) [9]: 0.55; Activity (deltalog10CFU/ml) [15]: 7
O=c1c2ccccc2nc2c(F)cc(F)cn12 | 200 (≈ 861 µM) | – | – | > 50 | 52 | 80 | 16 | 0.5 | Active | Active | > 255 | fold change (FC) [13]: 4; fractional inhibitory concentration index (FICI) [13]: 0.3
O=c1c2ccc(Cl)cc2nc2ccccn12 | 200 (≈ 867 µM) | – | – | > 50 | 70 | 80 | 8 | 0.62 | Active | Active | 248 | fold change (FC) [16]: 8; fractional inhibitory concentration index (FICI) [16]: 0.62; Activity (deltalog10CFU/ml) [17]: 4; Activity [6]: 18000 FU
N#CC(C#N)=NNc1cccc(Cl)c1 [CARBONYL CYANIDE M-CHLOROPHENYLHYDRAZONE] | 25 (≈ 122 µM) | – | – | – | – | – | – | – | – | – | – | fold change (FC) [18]: 2; fractional inhibitory concentration index (FICI) [18]: 0.5; fold change (FC) [19]: 32; fractional inhibitory concentration index (FICI) [19]: 0.03; inhibition [20]: Active; Activity [21]: 1000 FU
Cc1cccn2c(=O)c3ccc(Br)cc3nc12 | 200 (≈ 692 µM) | 4 | 0.37 | – | – | – | – | – | – | – | – | –
